Laboratory results: patent US7182943B2, “Method and system for modulation of microbial cell characteristics” (Université Laval, priority 2002, dated 2007)
Read-outs that look alike come from different tables or passages of the source. No end group written: not given here.

How the values were obtained:
L. diacetylactis = assay: Antibiotic tolerance by the disc assay method, L. diacetylactis cells; assay type: cell-based, Lactococcus lactis ssp lactis biovar diacetylactis; conditions: after approximately 6 days of continuous culture, tolerance increased with time
Method: (§1) FIG. 1 : Tolerance to kanamycin of L. diacetylactis and B. longum cells produced during continuous immobilized cell fermentation in reactors R1 and R2 for different culture times. J and R indicate the culture day and reactor, respectively. The antibiotic sensitivity was tested by the disc assay method.
(§2) Bifidobacterium longum ATCC 15707 and Lactococcus lactis ssp lactis biovar diacetylactis were immobilized separately in κ-carrageenan/locust bean gum gel beads with a 2% (v/v) inoculum, as described previously (Lamboley et al. 1997). Beads with diameters in the range 1–2 mm were selected by wet sieving and used for fermentation experiments. This mixed gel is a good matrix entrapment for temperature-sensitive cells, with good mechanical properties for long-term stability during continuous culture with immobilized cells (Lamboley et al., 1997; 1999; 2001). The κ-carrageenan/locust bean gum gel is stabilized by potassium and other cations present in the culture broth. […] Other gel compositions can also be used for the immobilization matrix, such as polysaccharides and proteins, with other chemical products.
(§3) Reactor R1 was inoculated with 15% (v/v) of each of the two types of gel beads containing a pure culture of the two strains which have been pre-colonized during a 16 h pH-controlled batch culture. […] The reactors in series were continuously fed with MRS medium (de Man et al., 1960) supplemented with KCl 0.15 M to ensure bead mechanical stability. Medium feed flow rate was set at 240 ml/h during the 17-day culture and pH was controlled at 6.0 by addition of NH4OH 6N. The bioreactor was held at temperatures varying between 32–37° C. and purged with CO2 to maintain anaerobic conditions, with mixing set at 120 rpm.
(§4) FIG. 1 and Table 1 illustrate the effect of different antibiotics on the increase of L. diacetylactis and B. longum tolerance as a function of culture time.

B. longum [1] = assay: Antibiotic sensitivity by the disc assay method, B. longum cells; assay type: cell-based, Bifidobacterium longum ATCC 15707; conditions: after approximately 6 days of continuous culture, tolerance increased with time
Method: as §1, §2, §3, §4

B. longum [2] = conditions: 30000 ppm H2O2, 1 min at 37° C.
Method: FIG. 4: B. longum survival to hydrogen peroxyde (H2O2) of control (free-cell batch culture) and experimental (continuous two-stage immobilized cells fermentation) cultures. […] A bacterial sample (1 ml) was incubated with 9 ml H2O2 solution at final concentrations of 0, 2000, 10000, 20000, or 30000 ppm H2O2, for 1 min at 37° C. After incubation, 0.1 ml of test sample was added to 9.9 ml catalase 2% to stop the reaction, and cell survival was determined by the pour plate method.
The resistance of cells in the effluents from R1 and R2 to different stresses was tested as a function of fermentation time and compared to a control treatment. Control cells were produced during free-cell batch fermentation in MRS medium inoculated at 2% and incubated for 18 h at 37° C. with no pH control.

| Compound | Tolerance of cells produced with immobilized cell technology compared to the control (L. diacetylactis) | Tolerance of cells produced with immobilized cell technology compared to the control (B. longum [1]) | Cell survival (B. longum [2]; B. longum cells produced with ICT) [%] | Cell survival (B. longum [2]; B. longum control cells (free-cell batch culture)) [%] |
| --- | --- | --- | --- | --- |
| O=C(N[C@H](CO)[C@H](O)c1ccc([N+](=O)[O-])cc1)C(Cl)Cl [Chloramphenicol] | more tolerant | increased tolerance |  |  |
| CC[C@H]1OC(=O)[C@H](C)[C@@H](O[C@H]2C[C@@](C)(OC)[C@@H](O)[C@H](C)O2)[C@H](C)[C@@H](O[C@@H]2O[C@H](C)C[C@H](N(C)C)[C@H]2O)[C@](C)(O)C[C@@H](C)C(=O)[C@H](C)[C@@H](O)[C@]1(C)O [Erythromycin] |  | increased tolerance |  |  |
| OO [H2O2, hydrogen peroxide] |  |  | 0.1 | 0.003 |
| CN[C@H](CC(C)C)C(=O)N[C@H]1C(=O)N[C@@H](CC(N)=O)C(=O)N[C@H]2C(=O)N[C@H]3C(=O)N[C@H](C(=O)N[C@H](C(=O)O)c4cc(O)cc(O)c4-c4cc3ccc4O)[C@H](O)c3ccc(c(Cl)c3)Oc3cc2cc(c3O[C@@H]2O[C@H](CO)[C@@H](O)[C@H](O)[C@H]2O[C@H]2C[C@](C)(N)[C@H](O)[C@H](C)O2)Oc2ccc(cc2Cl)[C@H]1O [Vancomycin] | more tolerant | increased tolerance |  |  |
| CN(C)[C@@H]1C(=O)C(C(N)=O)=C(O)[C@@]2(O)C(=O)C3=C(O)c4c(O)cccc4[C@@](C)(O)[C@H]3C[C@@H]12 [tetracyclin] | more tolerant | increased tolerance |  |  |
| Nisin Z (ITSISLCTPGCKTGALMGCNMKTATCNCSIHVSK; also: lantibiotic nisin-Z: thioether rings and dehydro residues not placed; UniProt P29559 24-57, looked up) [bacteriocin tested among the antibiotics in the disc assay] | more tolerant | increased tolerance |  |  |
